≈ marks a conversion by molar mass, not a printed value. Like-named read-outs stand apart in the source and are kept apart here.
Key:
E. coli topoisomerase IV = target: T1, E. coli topoisomerase IV (Escherichia coli, UniProt P0AFI2+P20083); test: Topoisomerase IV k-DNA decatenation assay; assay type: biochemical
T1 construct: made in house; host or cells: E. coli overexpressing strains
Method: Topoisomerase IV was purified from E. coli overexpressing strains and the compounds were assayed according to literature conditions (Journal of Biological Chemistry, 1993;268(32):24481). The k-DNA decatenation assay was used. Briefly, reactions were performed in buffer R (40 mM Tris-HCl (pH 7.5), 6 mM MgCl2, 10 mM DTT, 100 mM potassium glutamate, 40 μM ATP, 50 μg/mL bovine serum albumin, 10 mM NaCl). 0.2 μg of kinetoplast DNA (k-DNA; TopoGen, Columbus, Ohio) was incubated with 5 ng of E. coli topoisomerase IV in the presence or absence of test compounds for 10 minutes at 37° C. Subsequently, one-tenth volume of 10×gel loading buffer (0.3% bromophenol blue, 16% Ficoll, 10 mM Na2HPO4) was added, and samples were loaded onto horizontal 0.8% agarose gels prepared with TBE buffer and containing 0.05 μg/mL of ethidium bromide. Electrophoresis was at 70 V for 2 to 4 hours. Gels were then examined by exposure to UV light. The concentration of drug inhibiting 50% of the decantenating activity of Topoisomerase IV is given as an IC50 and recorded in Table 2.

E. coli gyrase = target: T2, E. coli gyrase (Escherichia coli, UniProt P0AES4+P0AES6); test: DNA gyrase supercoiling inhibition assay; assay type: biochemical
T2 construct: purchased Lucent, Ltd., Leicester, UK
Method: The effects of test agents on the activity of DNA gyrase was determined by the supercoiling inhibition assay, following reaction conditions recommended by the enzyme supplier (Lucent, Ltd., Leicester, UK), as follows. Reactions were performed in buffer G (35 mM Tris-HCL (pH 7.5), 24 mM KCl, 4 mM MgCl2, 2 mM DTT, 1.8 mM spermidine, 1 mM ATP, 0.1 mg/mL bovine serum albumin). 0.25 μg of relaxed plasmid pBR322 (Lucent, Ltd., Leicester, UK) was reacted with 1 U E. coli gyrase (Lucent, Ltd., Leicester, UK), in the absence or presence of drugs, for 30 minutes at 37° C. Reactions were stopped by the addition of SDS and proteinase K to respective final concentrations of 1% and 0.5 mg/mL. After an additional 30 minutes at 37° C., one-tenth volume of 10×loading buffer (0.3% bromophenol blue, 16% Ficoll, 10 mM Na2HPO4) was added, and reactions were loaded onto agarose gels and electrophoresed as described above for intercalation assays. The concentration of drug inhibiting 50% of the supercoiling activity of DNA gyrase is given as an IC50 and recorded in Table 2.

S. pyogenes C203 = test: Antibacterial assay, standard microtitration, MIC; assay type: cell-based; settings: Gram positive; for MIC: Streptococcus pyogenes, read-out: Minimum Inhibitory Concentrations, S. pyogenes C203
Method: (§1) The compounds of the present invention were tested against an assortment of gram negative and gram positive organisms using standard microtitration techniques (Cohen, et al., Antimicrob. Agents Chemother., 1985;28:766; Heifetz, et al. Antimicrob. Agents Chemother., 1974;6:124).

B. subtilis RB1 = test: Antibacterial assay, standard microtitration, MIC; assay type: cell-based; settings: Gram positive; for MIC: Bacillus subtilis, read-out: Minimum Inhibitory Concentrations, B. subtilis RB1
Method: as §1

E. coli To1C = test: Antibacterial assay, standard microtitration, MIC; assay type: cell-based; settings: for Minimum Inhibitory Concentrations, E. coli To1C: Gram negative; for MIC: Escherichia coli, TO1C, read-out: Minimum Inhibitory Concentrations, E. coli To1C
Method: as §1

E. coli B90 = test: Antibacterial assay, standard microtitration, MIC; assay type: cell-based; settings: Gram negative; for MIC: Escherichia coli, read-out: Minimum Inhibitory Concentrations, E. coli B90
Method: as §1

E. coli MC4100 = test: Antibacterial assay, standard microtitration, MIC; assay type: cell-based; settings: Gram negative; for MIC: Escherichia coli, read-out: Minimum Inhibitory Concentrations, E. coli MC4100
Method: as §1

S. aureus 29213 = test: Antibacterial assay, standard microtitration, MIC; assay type: cell-based; settings: Gram positive; for MIC: Staphylococcus aureus, read-out: Minimum Inhibitory Concentrations, S. aureus 29213
Method: as §1

[1] = Mammalian cell cytotoxicity, colony formation; assay type: cell-based; settings: Chinese hamster
Method: Mammalian Cell Cytotoxicity
The cells were grown overnight and treated with drug for 3 hours at 37° C., at which time the compound containing media was replaced with fresh media. The cells were then incubated for 5 days and examined for colony formation.

relaxed plasmid pBR322 = test: DNA intercalation/binding assay; settings: pBR322 with calf thymus topoisomerase I, 30 minutes at 37° C.; read-out: Drug Concentration causing 50% Intercalation of DNA
Method: Compounds of the present invention were evaluated for their ability to intercalate/bind to DNA, using the procedure described in Nucleic Acids Research, 1987;15(15):6713. Specifically, 0.2 μg of relaxed plasmid pBR322 (Lucent, Ltd., Leicester, UK) was treated with 2 U of calf thymus topoisomerase I (Gibco/BRL, Gaithersburg, Md.) in buffer I (10 mM Tris-HCl (Ph 7.5), 50 mM KCl, 5 mM MgCl2, 1 mM Na2EDTA, 15 μg/mL bovine serum albumin) in the presence or absence of test compounds. Reaction were incubated for 30 minutes at 37° C.; volumes were typically 30 μL. Reactions were terminated by the addition of sodium dodecylsulfate (SDS) to 1% and proteinase K to 0.5 mg/mL final concentrations. After an additional 30 minutes at 37° C., one-tenth volume of 10×concentrated loading buffer (0.3% bromophenol blue, 16% Ficoll, 10 mM Na2HPO4) was added, and samples were loaded onto horizontal 0.8% agarose gels prepared in TAE buffer. Electrophoresis was at 22 V for 14 hours. Gels were then stained by soaking for 1.5 hours in deionized water containing 0.2 μg/mL of ethidium bromide, followed by destaining in deionized water for an additional 1.5 hours. Gels were examined and photographed following exposure to UV light. The concentration of the drug which induced a 50% change in the DNA by intercalation is represented by an intercalation IC50 and is recorded in Table 4.

[2] = k-DNA decatenation, 10 minutes at 37° C., read-out: Top IV IC50
[3] = supercoiling of relaxed pBR322, 30 minutes at 37° C., read-out: DNA Gyrase IC50
[4] = Chinese hamster cells, drug for 3 hours at 37° C., colony formation after 5 days, read-out: 50% Cytotoxic Conc. in CHO cells

T1 sequence (P0AFI2 whole entry): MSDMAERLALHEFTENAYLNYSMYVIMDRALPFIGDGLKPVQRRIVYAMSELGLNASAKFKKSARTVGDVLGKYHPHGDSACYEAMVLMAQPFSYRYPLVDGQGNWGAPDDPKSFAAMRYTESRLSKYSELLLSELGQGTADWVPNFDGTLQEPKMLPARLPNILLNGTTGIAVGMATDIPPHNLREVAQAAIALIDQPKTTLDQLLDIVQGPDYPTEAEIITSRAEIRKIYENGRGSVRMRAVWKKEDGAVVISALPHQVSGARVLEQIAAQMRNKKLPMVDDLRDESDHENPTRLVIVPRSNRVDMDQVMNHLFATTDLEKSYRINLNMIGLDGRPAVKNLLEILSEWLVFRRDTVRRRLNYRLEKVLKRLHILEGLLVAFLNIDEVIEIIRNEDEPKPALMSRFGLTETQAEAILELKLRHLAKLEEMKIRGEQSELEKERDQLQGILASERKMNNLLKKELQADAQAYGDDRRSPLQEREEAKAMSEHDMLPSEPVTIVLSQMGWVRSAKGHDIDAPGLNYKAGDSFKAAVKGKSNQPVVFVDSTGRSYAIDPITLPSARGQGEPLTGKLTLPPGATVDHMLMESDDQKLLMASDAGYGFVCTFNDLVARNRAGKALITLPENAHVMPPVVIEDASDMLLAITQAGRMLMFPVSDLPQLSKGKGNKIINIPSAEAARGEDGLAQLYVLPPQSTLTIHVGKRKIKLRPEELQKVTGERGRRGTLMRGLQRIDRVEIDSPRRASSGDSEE
T1 sequence (P20083 whole entry): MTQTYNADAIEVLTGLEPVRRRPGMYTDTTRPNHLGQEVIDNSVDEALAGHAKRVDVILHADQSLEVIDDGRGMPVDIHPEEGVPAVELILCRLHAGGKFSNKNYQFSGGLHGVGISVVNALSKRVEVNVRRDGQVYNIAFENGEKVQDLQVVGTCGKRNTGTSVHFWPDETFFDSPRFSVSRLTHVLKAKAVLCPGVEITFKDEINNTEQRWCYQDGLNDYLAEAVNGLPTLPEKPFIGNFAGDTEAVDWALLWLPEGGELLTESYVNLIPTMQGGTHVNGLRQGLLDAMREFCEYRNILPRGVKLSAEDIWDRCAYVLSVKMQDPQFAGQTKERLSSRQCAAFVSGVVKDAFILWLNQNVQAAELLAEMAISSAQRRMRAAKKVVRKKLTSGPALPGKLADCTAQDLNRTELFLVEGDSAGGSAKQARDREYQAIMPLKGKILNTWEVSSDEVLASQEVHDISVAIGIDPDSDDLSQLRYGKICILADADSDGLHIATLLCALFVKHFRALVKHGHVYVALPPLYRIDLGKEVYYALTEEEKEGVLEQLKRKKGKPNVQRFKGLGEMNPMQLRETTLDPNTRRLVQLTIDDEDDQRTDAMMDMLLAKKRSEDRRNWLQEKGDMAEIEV
T2 sequence (P0AES4 whole entry, one chain of several): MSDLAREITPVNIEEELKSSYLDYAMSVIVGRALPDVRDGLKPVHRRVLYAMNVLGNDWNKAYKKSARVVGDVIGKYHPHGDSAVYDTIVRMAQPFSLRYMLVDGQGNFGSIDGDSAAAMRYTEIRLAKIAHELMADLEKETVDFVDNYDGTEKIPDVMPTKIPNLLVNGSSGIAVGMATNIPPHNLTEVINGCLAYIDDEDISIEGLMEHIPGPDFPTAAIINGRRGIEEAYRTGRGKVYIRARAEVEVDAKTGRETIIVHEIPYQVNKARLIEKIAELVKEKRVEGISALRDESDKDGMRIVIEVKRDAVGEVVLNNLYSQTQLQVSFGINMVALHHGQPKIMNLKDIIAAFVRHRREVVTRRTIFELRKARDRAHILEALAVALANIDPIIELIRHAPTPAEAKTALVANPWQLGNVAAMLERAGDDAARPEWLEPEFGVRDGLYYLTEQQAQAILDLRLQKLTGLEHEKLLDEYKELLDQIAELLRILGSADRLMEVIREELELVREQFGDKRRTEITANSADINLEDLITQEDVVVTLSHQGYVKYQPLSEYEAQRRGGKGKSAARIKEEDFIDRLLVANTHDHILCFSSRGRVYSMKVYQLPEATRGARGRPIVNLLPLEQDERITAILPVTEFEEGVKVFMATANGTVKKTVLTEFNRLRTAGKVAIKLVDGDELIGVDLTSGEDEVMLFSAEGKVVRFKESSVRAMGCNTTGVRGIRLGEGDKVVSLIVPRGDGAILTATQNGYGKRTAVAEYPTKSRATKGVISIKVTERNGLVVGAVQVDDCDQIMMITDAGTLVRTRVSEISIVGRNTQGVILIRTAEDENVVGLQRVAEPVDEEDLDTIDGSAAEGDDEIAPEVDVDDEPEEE

| Compound | IC50 (E. coli topoisomerase IV; [2]) [µM] | IC50 (E. coli gyrase; [3]) [µM] | IC50 at 3 h [1, 4] [µM] | MIC (S. pyogenes C203) [µg/mL] | MIC (B. subtilis RB1) [µg/mL] | MIC (E. coli B90) [µg/mL] | MIC (E. coli MC4100) [µg/mL] | MIC (S. aureus 29213) [µg/mL] | IC50 (relaxed plasmid pBR322) [µM] | MIC (E. coli To1C) [µg/mL] | further results |
| --- | --- | --- | --- | --- | --- | --- | --- | --- | --- | --- | --- |
| 6-Hydroximino-2,5-dihydroxy-methyl-benzo[de]isoquinoline-1,3-dione [Example 120] | 25 | 30 | – | – | – | – | – | – | – | – | Minimum Inhibitory Concentrations, S. pyogenes C203 (S. pyogenes C203): 64 µg/mL; Minimum Inhibitory Concentrations, B. subtilis RB1 (B. subtilis RB1): >64 µg/mL; Minimum Inhibitory Concentrations, E. coli To1C (E. coli To1C): 1.0 µg/mL; Minimum Inhibitory Concentrations, E. coli B90 (E. coli B90): 2.0 µg/mL; Minimum Inhibitory Concentrations, E. coli MC4100 (E. coli MC4100): >64 µg/mL; Minimum Inhibitory Concentrations, S. aureus 29213 (S. aureus 29213): 16 µg/mL |
| O=C1c2cccc3c(Br)ccc(c23)C(=O)N1O [Example 4, 6-Bromo-2-hydroxy-benzo[de]isoquinoline-1,3-dione] | – | – | > 250 | > 64 | 8 (≈ 27.4 µM) | 8 (≈ 27.4 µM) | > 64 | 16 (≈ 54.8 µM) | – | – | – |
| Nc1cc2c3c(cccc3c1)C(=O)N(O)C2=O [Example 8, 5-Amino-2-hydroxy-benzo[de]isoquinoline-1,3-dione] | 65 | 7 | > 500 | > 64 | 8 (≈ 35.1 µM) | 4 (≈ 17.5 µM) | 8 (≈ 35.1 µM) | 32 (≈ 140 µM) | > 100 | – | – |
| COc1cc2c3c(cccc3c1)C(=O)N(O)C2=O [Example 13, 2-Hydroxy-5-methoxy-benzo[de]isoquinoline-1,3-dione] | 29 | 11 | > 250 | > 64 | 1 (≈ 4.11 µM) | 0.13 (≈ 0.534 µM) | 0.5 (≈ 2.06 µM) | 8 (≈ 32.9 µM) | > 100 | – | – |
| CSc1ccc2c3c(cccc13)C(=O)N(O)C2=O [Example 16, 2-Hydroxy-6-methylthio-benzo[de]isoquinoline-1,3-dione] | – | – | > 250 | 64 (≈ 247 µM) | 2 (≈ 7.71 µM) | 1 (≈ 3.86 µM) | > 64 | 8 (≈ 30.9 µM) | > 100 | 1 (≈ 3.86 µM) | – |
| Nc1c(Br)cc2c3c(cccc13)C(=O)N(O)C2=O [Example 26, 6-Amino-5-bromo-2-hydroxy-benzo[de]isoquinoline-1,3-dione] | 10 | 7 | – | > 64 | 0.5 (≈ 1.63 µM) | 0.25 (≈ 0.814 µM) | 0.5 (≈ 1.63 µM) | 2 (≈ 6.51 µM) | > 100 | – | – |
| COc1cc2c3c(cccc3c1Br)C(=O)N(O)C2=O [Example 32, 6-Bromo-2-hydroxy-5-methoxy-benzo[de]isoquinoline-1,3-dione] | – | – | > 250 | > 64 | 4 (≈ 12.4 µM) | 8 (≈ 24.8 µM) | > 64 | 8 (≈ 24.8 µM) | > 100 | 4 (≈ 12.4 µM) | – |
| O=C1c2cc([N+](=O)[O-])cc3cc([N+](=O)[O-])cc(c23)C(=O)N1O [Example 42, 2-Hydroxy-5,8-dinitro-benzo[de]isoquinoline-1,3-dione] | – | – | – | 32 (≈ 106 µM) | 16 (≈ 52.8 µM) | 1 (≈ 3.3 µM) | 4 (≈ 13.2 µM) | 8 (≈ 26.4 µM) | > 100 | – | IC50 (E. coli topoisomerase IV): 20 µM; IC50 (E. coli gyrase): 20 µM; IC50 at 3 h ([1]; drug for 3 hours at 37° C., colony formation after 5 days, read-out: 50% Cytotoxic Conc. in CHO cells): 160 µM |
| CN1CCN(c2c(Br)cc3c4c(cccc24)C(=O)N(O)C3=O)CC1 [Example 50, 5-Bromo-2-hydroxy-6-(4-methylpiperazin-1-yl)-benzo[de]isoquinoline-1,3-dione] | 97 | 31 | 88 | 8 (≈ 20.5 µM) | 4 (≈ 10.3 µM) | 2 (≈ 5.13 µM) | 32 (≈ 82 µM) | 8 (≈ 20.5 µM) | – | 2 (≈ 5.13 µM) | – |
| NC1CCN(c2ccc3c4c(cccc24)C(=O)N(O)C3=O)C1 (stereo not drawn) [Example 62, 6-(3-Amino-pyrrolidin-1-yl)-2-hydroy-benzo[de]isoquinoline-1,3-dione] | – | 18 | 177 | 4 (≈ 13.5 µM) | 64 (≈ 215 µM) | 32 (≈ 108 µM) | > 64 | > 64 | – | 8 (≈ 26.9 µM) | – |
| CN1CCN(c2c(Cl)cc3c4c(cccc24)C(=O)N(O)C3=O)CC1 [Example 98] | – | – | – | 8 (≈ 23.1 µM) | 8 (≈ 23.1 µM) | 4 (≈ 11.6 µM) | 32 (≈ 92.5 µM) | 16 (≈ 46.3 µM) | 19 | 4 (≈ 11.6 µM) | IC50 (E. coli topoisomerase IV): 3 µM; IC50 (E. coli gyrase): 15.8 µM |
| O=C1c2cccc3c(Cl)c(Cl)cc(c23)C(=O)N1O [Example 103, 5,6-Dichloro-2-hydroxy-benzo[de]isoquinoline-1,3-dione] | 19 | 4.9 | – | > 64 | 1 (≈ 3.55 µM) | 0.5 (≈ 1.77 µM) | 16 (≈ 56.7 µM) | 16 (≈ 56.7 µM) | 26 | 0.5 (≈ 1.77 µM) | – |
| NC1CCN(c2c(Cl)cc3c4c(cc([N+](=O)[O-])cc24)C(=O)N(O)C3=O)C1.O=C(O)C(F)(F)F (stereo not drawn) [Example 115] | – | 0.7 | – | – | – | – | – | – | – | – | IC50 (E. coli topoisomerase IV; read-out: Top IV IC50): 9 µM; Minimum Inhibitory Concentrations, S. pyogenes C203 (S. pyogenes C203): 4.0 µg/mL; Minimum Inhibitory Concentrations, B. subtilis RB1 (B. subtilis RB1): 2.0 µg/mL; Minimum Inhibitory Concentrations, E. coli To1C (E. coli To1C): 0.5 µg/mL; Minimum Inhibitory Concentrations, E. coli B90 (E. coli B90): 0.5 µg/mL; Minimum Inhibitory Concentrations, E. coli MC4100 (E. coli MC4100): 8.0 µg/mL; Minimum Inhibitory Concentrations, S. aureus 29213 (S. aureus 29213): >64 µg/mL |
| NC1CCN(c2ccc3c4c(cc(Cl)c(Cl)c24)C(=O)N(O)C3=O)C1.O=C(O)C(F)(F)F (stereo not drawn) [Example 117] | – | 10 | – | – | – | – | – | – | – | – | IC50 (E. coli topoisomerase IV; read-out: Top IV IC50): 4 µM; Minimum Inhibitory Concentrations, S. pyogenes C203 (S. pyogenes C203): 8.0 µg/mL; Minimum Inhibitory Concentrations, B. subtilis RB1 (B. subtilis RB1): 2.0 µg/mL; Minimum Inhibitory Concentrations, E. coli To1C (E. coli To1C): 0.25 µg/mL; Minimum Inhibitory Concentrations, E. coli B90 (E. coli B90): 0.5 µg/mL; Minimum Inhibitory Concentrations, E. coli MC4100 (E. coli MC4100): 2.0 µg/mL; Minimum Inhibitory Concentrations, S. aureus 29213 (S. aureus 29213): 8.0 µg/mL |
| CN(C)CCN1C(=O)c2cc([N+](=O)[O-])cc3cc([N+](=O)[O-])cc(c23)C1=O [Ref #1, 5,8-dinitro-2-(2-dimethylaminoethyl)-benzo[de]isoquinoline-1,3-dione, reference compound] | – | – | – | 2 (≈ 5.58 µM) | 2 (≈ 5.58 µM) | 2 (≈ 5.58 µM) | 8 (≈ 22.3 µM) | 4 (≈ 11.2 µM) | < 10 | – | IC50 at 3 h [1]: < 8 µM |

Source: patent publication US6362181B1, “Isoquinolones” (Warner-Lambert Company, priority 1996, dated 2002)
